The text below walks through data of patent US20150299143A1, “SUBSTITUTED TRIAZOLE AND IMIDAZOLE COMPOUNDS” (HOFFMANN-LA ROCHE INC., priority 2012, published 2015).

In experiment [1] the target is T1, β 5i (chymotrypsin-like activity) (Homo sapiens, UniProt P20618+P28062).
T1 construct: protease activity associated with the proteasome complex in cultured cells; endogenous in cells; host or cells: Ramos cells
Nature of the experiment: Cell-Based Proteasome subunit activity/selectivity assay, β5i, substrate (ANW)2Rh110. Conditions: Ramos cells; substrate (ANW)2Rh110 (β5i); highest concentration tested 20 μM; read-out: Ic50:ramos:ac-(anw)2-r110. The text has this:
(§1) Cell-Based Proteasome Activity/Selectivity Assay
(§2) The Cell-Based Proteasome subunit activity/selectivity assay was a panel of 5 fluorogenic assays that independently measured the activity of β5c or β 5i (chymotrypsin-like activity), β 2c/2i (trypsin-like), and β 1c or β 1i (caspase-like) protease activity associated with the proteasome complex in cultured cells. Specifically, the following substrates were used for respective subunit activities: β 1i (PAL)2Rh110, β 1c: (LLE)2 Rh110, β 2c/2i: (KQL)2Rh110, β 5c: (WLA)2Rh110, β 5i: (ANW)2Rh110. The following procedure was followed:
(§3) Added 0.5 μl of 100× 4-fold serial diluted test compounds or DMSO to each well. Highest concentration of compound tested was 20 μM, thus compound serial dilution started from […]. Incubated for 30 minutes at 37° C. Then equilibrated at room temperature for 15 minutes. […] Shaked for one minute @ 700 rpm. Incubated for 120 min at room temperature. Then read the plates with an Envision multilabel plate reader (PerkinElmer) with 500 nm excitation/519 nm emission.

The next experiment deals with T2, β 1i (caspase-like) (Homo sapiens, UniProt P28065+P40306).
T2 construct: protease activity associated with the proteasome complex in cultured cells; endogenous in cells; host or cells: Ramos cells
Put plainly: Cell-Based Proteasome subunit activity/selectivity assay, β1i, substrate (PAL)2Rh110. Conditions: Ramos cells; substrate (PAL)2Rh110 (β1i); highest concentration tested 20 μM; read-out: Ic50:ramos:rh110-(pal)2.
Excerpt: as §1, §2, §3

Experiment [2] deals with T3, β5c (chymotrypsin-like activity) (Homo sapiens, UniProt P20618+P28074).
T3 construct: protease activity associated with the proteasome complex in cultured cells; endogenous in cells; host or cells: Ramos cells
Put plainly: Cell-Based Proteasome subunit activity/selectivity assay, β5c, substrate (WLA)2Rh110. The conditions noted are these: Ramos cells; substrate (WLA)2Rh110 (β5c); highest concentration tested 20 μM; read-out: Ic50:ramos:rh110-(wla)2.
Excerpt: as §1, §2, §3

The target of a further experiment is T4, β 1c (caspase-like) (Homo sapiens, UniProt P28072+Q99436).
T4 construct: protease activity associated with the proteasome complex in cultured cells; endogenous in cells; host or cells: Ramos cells
Nature of the experiment: Cell-Based Proteasome subunit activity/selectivity assay, β1c, substrate (LLE)2Rh110. The conditions noted are these: Ramos cells; substrate (LLE)2Rh110 (β1c); highest concentration tested 20 μM; read-out: Ic50:ramos:rh110-(lle)2.
Excerpt: as §1, §2, §3

For the next experiment, the system named is β 2c/2i (trypsin-like). Put plainly: Cell-Based Proteasome subunit activity/selectivity assay, β2c/2i, substrate (KQL)2Rh110. The conditions noted are these: Ramos cells; substrate (KQL)2Rh110 (β2c/2i); highest concentration tested 20 μM.
Excerpt: as §1, §2, §3

Regarding `CCc1ccc(C(C#N)NC(=O)c2cn(CCNC(=O)c3cc(Cl)ccn3)nn2)cc1` (stereo not shown) [Example 27, 4-Chloro-pyridine-2-carboxylic acid [2-(4-{[cyano-(4-ethyl-phenyl)-methyl]-carbamoyl}-[1,2,3]triazol-1-yl)-ethyl]-amide], the IC50 (usually the concentration at which inhibition is half-maximal) in experiment [1] was 4520 nM; on β 1i (caspase-like), at least 20 µM; in experiment [2], at least 20 µM; on β 1c (caspase-like) it was at least 20 µM; with β 2c/2i (trypsin-like), at least 20 µM.
As for `CCc1ccc(C(C#N)NC(=O)c2cn(CCNC(=O)c3ccc(Cl)cc3F)nn2)cc1` (stereo not shown) [Example 31, 1-[2-(4-Chloro-2-fluoro-benzoylamino)-ethyl]-1H-[1,2,3]triazole-4-carboxylic acid [cyano-(4-ethyl-phenyl)-methyl]-amide], the IC50 was 134 nM in experiment [1]; at least 20 µM on β 1i (caspase-like); 16.1 µM in experiment [2]; at least 20 µM at β 1c (caspase-like); at least 20 µM in the experiment with β 2c/2i (trypsin-like).
Take `CCc1ccc(C(C#N)NC(=O)c2cn(CCNC(=O)c3cc(S(C)(=O)=O)ccc3OC)nn2)cc1` (stereo not shown) [Example 42, 1-[2-(5-Methanesulfonyl-2-methoxy-benzoylamino)-ethyl]-1H-[1,2,3]triazole-4-carboxylic acid [cyano-(4-ethyl-phenyl)-methyl]-amide]: the IC50 in experiment [1] is 3150 nM; at β 1i (caspase-like), at least 20 µM; in experiment [2], at least 20 µM; at β 1c (caspase-like), at least 20 µM; in the experiment on β 2c/2i (trypsin-like), at least 20 µM.
On to `CCc1ccc(C(C#N)NC(=O)c2cn(CCNC(=O)c3ccc(C(F)(F)F)cc3F)cn2)cc1` (stereo not shown) [Example 94, 1-[2-(2-Fluoro-4-trifluoromethyl-benzoylamino)-ethyl]-1H-imidazole-4-carboxylic acid [cyano-(4-ethyl-phenyl)-methyl]-amide], for which the IC50 in experiment [1] is 1010 nM; on β 1i (caspase-like) it was at least 20 µM; in experiment [2], at least 20 µM; at β 1c (caspase-like), at least 20 µM; with β 2c/2i (trypsin-like), at least 20 µM.
In the case of `CCc1ccc(C(C#N)NC(=O)c2cn(CCNC(=O)c3cncc(Br)c3OC)nn2)cc1` (stereo not shown) [Example 30, 5-Bromo-N-[2-(4-{[cyano-(4-ethyl-phenyl)-methyl]-carbamoyl}-[1,2,3]triazol-1-yl)-ethyl]-4-methoxy-nicotinamide], the IC50 in experiment [1] is 1020 nM; on β 1i (caspase-like), at least 20 µM; in experiment [2], 6.78 µM; on β 1c (caspase-like) it was 17 µM; with β 2c/2i (trypsin-like) it was at least 20 µM.
Consider `CCc1ccc(C(C#N)NC(=O)c2cn(CCNC(=O)c3cc(Cl)cc(C)n3)nn2)cc1` (stereo not shown) [Example 21, 4-Chloro-6-methyl-pyridine-2-carboxylic acid [2-(4-{[cyano-(4-ethyl-phenyl)-methyl]-carbamoyl}-[1,2,3]triazol-1-yl)-ethyl]-amide], for which the IC50 in experiment [1] is 2880 nM; in experiment [2], at least 20 µM; on β 1c (caspase-like) it was at least 20 µM; in the experiment with β 2c/2i (trypsin-like), at least 20 µM.
Turning to `COc1ccc(C(=O)NCCn2cc(C(=O)NC(C#N)c3ccc4ccccc4c3)nn2)c(OC)c1OC` (stereo not shown) [Example 49, 1-[2-(2,3,4-Trimethoxy-benzoylamino)-ethyl]-1H-[1,2,3]triazole-4-carboxylic acid (cyano-naphthalen-2-yl-methyl)-amide], the IC50 in experiment [1] was 338 nM; in experiment [2], 12.5 µM; at β 1c (caspase-like) it was 19 µM; in the experiment on β 2c/2i (trypsin-like), at least 20 µM.
With `COc1ccc(C(=O)NCCn2cc(C(=O)NC(C#N)c3ccc4sccc4c3)nn2)c(OC)c1OC` (stereo not shown) [Example 48, 1-[2-(2,3,4-Trimethoxy-benzoylamino)-ethyl]-1H-[1,2,3]triazole-4-carboxylic acid (benzo[b]thiophen-5-yl-cyano-methyl)-amide], the IC50 in experiment [1] was 201 nM; in experiment [2], 16.3 µM; on β 1c (caspase-like) it was at least 20 µM; with β 2c/2i (trypsin-like), at least 20 µM.
Turning to `CCc1ccc(C(C#N)NC(=O)c2cn(CCNC(=S)c3ccc(OC)c(OC)c3OC)nn2)cc1` (stereo not shown) [Example 86, 1-[2-(2,3,4-Trimethoxy-thiobenzoylamino)-ethyl]-1H-[1,2,3]triazole-4-carboxylic acid [cyano-(4-ethyl-phenyl)-methyl]-amide], the IC50 in experiment [1] was 274 nM; on β 1i (caspase-like), at least 20 µM; in experiment [2], 16.3 µM; in the experiment with β 2c/2i (trypsin-like) it was at least 20 µM.
On to `CCc1ccc(C(C#N)NC(=O)c2cn(CCNC(=O)c3ccc(SC)cc3OC)nn2)cc1` (stereo not shown) [Example 19, 1-[2-(2-Methoxy-4-methylsulfanyl-benzoylamino)-ethyl]-1H-[1,2,3]triazole-4-carboxylic acid [cyano-(4-ethyl-phenyl)-methyl]-amide], for which the IC50 in experiment [1] was 111 nM; in experiment [2], 12 µM; on β 1c (caspase-like), at least 20 µM; in the experiment on β 2c/2i (trypsin-like) it was at least 20 µM.
Turning to `CCc1ccc(C(C#N)NC(=O)c2cn(CCNC(=O)c3cccc(OC)c3OC)nn2)cc1` (stereo not shown) [Example 16, 1-[2-(2,3-Dimethoxy-benzoylamino)-ethyl]-1H-[1,2,3]triazole-4-carboxylic acid [cyano-(4-ethyl-phenyl)-methyl]-amide], the IC50 was 1120 nM in experiment [1], at least 20 µM in experiment [2], at least 20 µM on β 1c (caspase-like) and at least 20 µM in the experiment with β 2c/2i (trypsin-like).
With `N#CC(NC(=O)c1cn(CCNC(=O)c2cc(Cl)ccc2Cl)nn1)c1ccc(C(F)(F)F)cc1` (stereo not shown) [Example 69, 1-[2-(2,5-Dichloro-benzoylamino)-ethyl]-1H-[1,2,3]triazole-4-carboxylic acid [cyano-(4-trifluoromethyl-phenyl)-methyl]-amide], the IC50 is 3790 nM in experiment [1], at least 20 µM on β 1i (caspase-like), at least 20 µM in experiment [2] and at least 20 µM with β 2c/2i (trypsin-like).
Take `COc1ccc(C(=O)NCCn2cc(C(=O)NC(C#N)c3ccc(C4CC4)cc3)nn2)c(OC)c1OC` (stereo not shown) [Example 58, 1-[2-(2,3,4-Trimethoxy-benzoylamino)-ethyl]-1H-[1,2,3]triazole-4-carboxylic acid [cyano-(4-cyclopropyl-phenyl)-methyl]-amide]: the IC50 in experiment [1] was 159 nM; at β 1i (caspase-like), at least 20 µM; in experiment [2], at least 20 µM; with β 2c/2i (trypsin-like), at least 20 µM.
For `CCc1ccc(C(C#N)NC(=O)c2cn(CCNC(=O)c3ccc(OC)nn3)nn2)cc1` (stereo not shown) [Example 40, 6-Methoxy-pyridazine-3-carboxylic acid [2-(4-{[cyano-(4-ethyl-phenyl)-methyl]-carbamoyl}-[1,2,3]triazol-1-yl)-ethyl]-amide], the IC50 is 4060 nM in experiment [1], at least 20 µM at β 1i (caspase-like), at least 20 µM in experiment [2] and at least 20 µM in the experiment with β 2c/2i (trypsin-like).
For `CCc1ccc(C(C#N)NC(=O)c2cn(CCNC(=O)c3ncccc3OC)nn2)cc1` (stereo not shown) [Example 17, 3-Methoxy-pyridine-2-carboxylic acid [2-(4-{[cyano-(4-ethyl-phenyl)-methyl]-carbamoyl}-[1,2,3]triazol-1-yl)-ethyl]-amide], the IC50 in experiment [1] was 9930 nM; in experiment [2], at least 20 µM; at β 1c (caspase-like), at least 20 µM; in the experiment on β 2c/2i (trypsin-like), at least 20 µM.
On to `CCc1ccc(C(C#N)NC(=O)c2cn(CCNC(=O)c3cccc4c3OCCO4)nn2)cc1` (stereo not shown) [Example 18, 1-{2-[(2,3-Dihydro-benzo[1,4]dioxine-5-carbonyl)-amino]-ethyl}-1H-[1,2,3]triazole-4-carboxylic acid [cyano-(4-ethyl-phenyl)-methyl]-amide], for which the IC50 was 482 nM in experiment [1], at least 20 µM in experiment [2], at least 20 µM at β 1c (caspase-like) and at least 20 µM in the experiment on β 2c/2i (trypsin-like).
Take `CCc1ccc(C(C#N)NC(=O)c2cn(CCNC(=O)c3ccc(Cl)cc3OC)nn2)cc1` (stereo not shown) [Example 20, 1-[2-(4-Chloro-2-methoxy-benzoylamino)-ethyl]-1H-[1,2,3]triazole-4-carboxylic acid [cyano-(4-ethyl-phenyl)-methyl]-amide]: the IC50 is 196 nM in experiment [1], at least 20 µM in experiment [2], at least 20 µM at β 1c (caspase-like) and at least 20 µM in the experiment on β 2c/2i (trypsin-like).
Consider `CCc1ccc(C(C#N)NC(=O)c2cn(CCNC(=O)c3ccc(OC)c(OC)c3OC)nn2)cc1` (single isomer, unassigned) [Example 51], for which the IC50 in experiment [1] was 604 nM; at β 1i (caspase-like), at least 20 µM.
On to `CCc1ccc(C(C#N)NC(=O)c2cn(CCNC(=O)c3cc(C(F)(F)F)ccc3OC)nn2)cc1` (stereo not shown) [Example 39, 1-[2-(2-Methoxy-5-trifluoromethyl-benzoylamino)-ethyl]-1H-[1,2,3]triazole-4-carboxylic acid [cyano-(4-ethyl-phenyl)-methyl]-amide], for which the IC50 in experiment [1] was 517 nM; at β 1i (caspase-like), at least 20 µM; in experiment [2], at least 20 µM; in the experiment with β 2c/2i (trypsin-like), at least 20 µM.
